Patent publication US20250163104A1, “MACROCYCLIC IMMUNOMODULATORS” (priority 2021, published 2025)
Where a SMILES comes first, the peptide text is derived from it. Bridges are numbered along the chain shown (N, C = ends). [ ]: non-standard residue; d: D form. The star is where a group is joined. Phe(4-COOH) = N[C@@H](Cc1ccc(C(=O)O)cc1)C(=O)O; Bip = N[C@@H](Cc1ccc(-c2ccccc2)cc1)C(=O)O; Phe(3-Me) = Cc1cccc(C[C@H](N)C(=O)O)c1; Val(3-OH) = CC(C)(O)[C@H](N)C(=O)O; Cha = N[C@@H](CC1CCCCC1)C(=O)O; Carboxymethyl = O=C(O)C*; Orn = NCCC[C@H](N)C(=O)O; Pra = C#CC[C@H](N)C(=O)O; Dab = NCC[C@H](N)C(=O)O; Dap = NC[C@H](N)C(=O)O

Target: T1, human PD-1 / PD-L1-Ig binding on Jurkat cell line over-expressing human PD-1 (Jurkat-PD-1) (Homo sapiens, UniProt Q15116)
T1 construct: expressed in transfected cells; host or cells: Jurkat
T1 sequence (Q15116 25-288): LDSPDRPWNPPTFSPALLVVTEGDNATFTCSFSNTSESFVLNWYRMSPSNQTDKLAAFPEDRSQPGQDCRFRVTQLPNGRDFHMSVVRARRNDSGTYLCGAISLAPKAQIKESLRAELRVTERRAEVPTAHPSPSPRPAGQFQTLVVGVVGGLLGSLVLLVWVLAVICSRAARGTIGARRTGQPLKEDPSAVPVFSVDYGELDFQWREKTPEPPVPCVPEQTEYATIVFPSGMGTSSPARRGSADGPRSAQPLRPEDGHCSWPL
Experiment: Jurkat-PD-1 Cell Binding High-Content Screening Assay (CBA)
Type: cell-based
Settings: Jurkat-PD-1 cells, PE-labeled PD-L1-Ig 20 nM final; read-out: Jurkat HPD1_PDL1 IC50
In short: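 Jurkat-hPD-1 cells in DMEM with 10% fetal calf serum receive test compound and are held at 37° C for 2 h. PE-labeled PD-L1-Ig is added at 20 nM final and left for 1 hour. Cells are then fixed and Hoechst-stained, and binding is measured by imaging.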

Row | Compound | IC50 [nM]
1 | C#CC[C@H](NC(=O)[C@H](CCN)NC(=O)[C@@H]1CSCC(=O)N[C@@H](CCCN)C(=O)N[C@@H](Cc2ccc(OCC(=O)O)cc2)C(=O)N[C@@H](CC(=O)O)C(=O)N[C@@H](Cc2cccc(C)c2)C(=O)N[C@@H](Cc2ccc(OCC(=O)O)cc2)C(=O)N[C@@H](Cc2ccc(-c3ccccc3)cc2)C(=O)N[C@@H](Cc2ccc(OCC(=O)O)cc2)C(=O)N[C@@H](CCCN)C(=O)N[C@H](CC(C)C)C(=O)N[C@@H](CCN)C(=O)N[C@@H](CC2CCCCC2)C(=O)N[C@@H](C(C)(C)O)C(=O)N[C@@H](CO)C(=O)N1)C(N)=O [Compound 1853] ({CH2CO}-[Orn]Y(Carboxymethyl)D[Phe(3-Me)]Y(Carboxymethyl)[Bip]Y(Carboxymethyl)[Orn][dL][Dab][Cha][Val(3-OH)]SC[Dab][Pra]-NH2; thioether N-14) | 6.9
2 | C#CC[C@H](NC(=O)[C@H](CCN)NC(=O)[C@@H]1CSCC(=O)N[C@@H](CCCN)C(=O)N[C@@H](Cc2ccc(OCC(=O)O)cc2)C(=O)N[C@@H](CC(=O)O)C(=O)N[C@@H](Cc2cccc(C)c2)C(=O)N[C@@H](Cc2ccc(OCC(=O)O)cc2)C(=O)N[C@@H](Cc2ccc(-c3ccccc3)cc2)C(=O)N[C@@H](Cc2ccc(OCC(=O)O)cc2)C(=O)N[C@@H](CCCN)C(=O)N[C@H](CC(C)C)C(=O)N[C@@H](CCN)C(=O)N[C@@H](CC2CCCCC2)C(=O)N[C@@H](C(C)(C)O)C(=O)N[C@@H]([C@@H](C)O)C(=O)N1)C(N)=O [Compound 1854] ({CH2CO}-[Orn]Y(Carboxymethyl)D[Phe(3-Me)]Y(Carboxymethyl)[Bip]Y(Carboxymethyl)[Orn][dL][Dab][Cha][Val(3-OH)]TC[Dab][Pra]-NH2; thioether N-14) | 15.1
3 | C#CC[C@H](NC(=O)[C@H](CCN)NC(=O)[C@@H]1CSCC(=O)N[C@@H](CCCN)C(=O)N[C@@H](Cc2ccc(OCC(=O)O)cc2)C(=O)N[C@@H](CC(=O)O)C(=O)N[C@@H](Cc2cccc(C)c2)C(=O)N[C@@H](Cc2ccc(OCC(=O)O)cc2)C(=O)N[C@@H](Cc2ccc(-c3ccccc3)cc2)C(=O)N[C@@H](Cc2ccc(OCC(=O)O)cc2)C(=O)N[C@@H](CCCN)C(=O)N[C@H](CC(C)C)C(=O)N[C@@H](CCN)C(=O)N[C@@H](CC2CCCCC2)C(=O)N[C@@H](C(C)C)C(=O)N[C@@H](CO)C(=O)N1)C(N)=O [Compound 1855] ({CH2CO}-[Orn]Y(Carboxymethyl)D[Phe(3-Me)]Y(Carboxymethyl)[Bip]Y(Carboxymethyl)[Orn][dL][Dab][Cha]VSC[Dab][Pra]-NH2; thioether N-14) | 6.8
4 | C#CC[C@H](NC(=O)[C@H](CCN)NC(=O)[C@@H]1CSCC(=O)N[C@@H](CN)C(=O)N[C@@H](Cc2ccc(C(=O)O)cc2)C(=O)N[C@@H](CC(=O)O)C(=O)N[C@@H](Cc2cccc(C)c2)C(=O)N[C@@H](Cc2ccc(C(=O)O)cc2)C(=O)N[C@@H](Cc2ccc(-c3ccccc3)cc2)C(=O)N[C@@H](Cc2ccc(C(=O)O)cc2)C(=O)N[C@@H](CCCN)C(=O)N[C@H](CC(C)C)C(=O)N[C@@H](CCN)C(=O)N[C@@H](CC2CCCCC2)C(=O)N[C@@H](C(C)(C)O)C(=O)N[C@@H](CCCN)C(=O)N1)C(N)=O [Compound 1856] ({CH2CO}-[Dap][Phe(4-COOH)]D[Phe(3-Me)][Phe(4-COOH)][Bip][Phe(4-COOH)][Orn][dL][Dab][Cha][Val(3-OH)][Orn]C[Dab][Pra]-NH2; thioether N-14) | 6
5 | C#CC[C@H](NC(=O)[C@H](CCN)NC(=O)[C@@H]1CSCC(=O)N[C@@H](CCCN)C(=O)N[C@@H](Cc2ccc(C(=O)O)cc2)C(=O)N[C@@H](CC(=O)O)C(=O)N[C@@H](Cc2cccc(C)c2)C(=O)N[C@@H](Cc2ccc(C(=O)O)cc2)C(=O)N[C@@H](Cc2ccc(-c3ccccc3)cc2)C(=O)N[C@@H](Cc2ccc(C(=O)O)cc2)C(=O)N[C@@H](CCCN)C(=O)N[C@H](CC(C)C)C(=O)N[C@@H](CCN)C(=O)N[C@@H](CC2CCCCC2)C(=O)N[C@@H](C(C)(C)O)C(=O)N[C@@H](Cc2cnc[nH]2)C(=O)N1)C(N)=O [Compound 1857] ({CH2CO}-[Orn][Phe(4-COOH)]D[Phe(3-Me)][Phe(4-COOH)][Bip][Phe(4-COOH)][Orn][dL][Dab][Cha][Val(3-OH)]HC[Dab][Pra]-NH2; thioether N-14) | 7.4
